# Experimental data as given in patent US20050118263A1, “Composition” (priority 2002, published 2005).
# How the values were obtained:
# healthy, unmedicated men = experiment: Randomised, double-blind, crossover trial in healthy men: cognitive tests at end of each phase (Example 2); assay type: in vivo, human; conditions: 4 weeks per phase, carbenoxolone 100 mg 8 hourly + amiloride 10 mg daily by mouth vs placebo + amiloride, p<0.01
# Procedure: 10 healthy, unmedicated men (65.5 plus/minus SD 5.5y) participated in a randomised, double-blind, crossover trial comparing carbenoxolone (100 mg 8 hourly for 4 weeks by mouth) plus amiloride (10 mg daily by mouth) with placebo (8 hourly for 4 weeks by mouth) plus amiloride (10 mg daily by mouth). Each study phase lasts 4 weeks. The two phases are separated by an 8 week washout period. The order of carbenoxolone or placebo is randomised and the subjects and the experimenters are blind to the treatment given. Participants are asked to look out for potential adverse effects of carbenoxolone, including weight gain and pedal edema, and blood pressure and plasma electrolytes are monitored weekly. Compliance is assessed by pill counting and detecting carbenoxolone in plasma by high performance liquid chromatography. At the end of each phase, tests of verbal fluency, verbal memory, visuospatial memory, attention and processing speed, and intelligence are performed. Data are mean+/−SEM for the % change in cognitive score, calculated for each individual as (score with carbenoxolone+amiloride)−(score with placebo+amiloride)/(score with placebo+amiloride)×100. P values refer to comparison of absolute data in the two groups. Statistical analysis is conducted using Mann-Witney U tests and Friedman's non-parametric ANOVAs.
# [1] = tested on: patients with type 2 diabetes; experiment: Randomised double-blind placebo controlled crossover trial in type 2 diabetes patients: cognitive tests at end of each phase (Example 3); assay type: in vivo, human; conditions: 6 weeks per phase
# Procedure: 12 patients with type 2 diabetes by World Health Organisation criteria (age range 52-70 y, mean 60.1 y), including 3 women and 9 men, participated in a randomised double-blind placebo controlled crossover trial comparing carbenoxolone (100 mg 8 hourly for 6 weeks by mouth) plus amiloride (10 mg daily by mouth) with placebo (8 hourly for 6 weeks by mouth) plus amiloride (10 mg daily by mouth). The two phases are separated by a washout period of 8 weeks. The order of carbenoxolone or placebo is randomised and the subjects and the experimenters are blind to the treatment given. At the end of each phase, tests of verbal fluency, verbal memory, visuospatial memory, attention and processing speed and intelligence are performed.
# [2] = known from Yau et al. (1999) Neurosci Lett 277: 45-48; cited from earlier work
# [3] = tested on: patients with type 2 diabetes; experiment: Withdrawals from treatment in patients with type 2 diabetes; assay type: in vivo, human; conditions: carbenoxolone alone: of 8 patients, including one hospital admission with hypokalaemia
structure (smiles),measurement,setting,value
"NC(N)=NC(=O)c1nc(Cl)c(N)nc1N [Placebo with Amiloride, 3,5-diamino-6-chloro-N-(diaminomethylene) pyrazinecarboxamide]","verbal fluency (Controlled Word Association test), mean/SD","healthy, unmedicated men",41/12
same,"Processing speed: DSST, Mean (SD)","[1]; Digit Symbol Substitution test, p 0.78",50.3 (6.7)
same,"Reasoning: RSPM, Mean (SD)","[1]; Ravens Standard Progressive Matrices, p 0.17",44.0 (6.6)
same,"Verbal memory: Rey AVLT, Mean (SD)","[1]; Rey Auditory Verbal Learning Test, p <0.01",56.1 (8.7)
same,"Verbal memory: WM Logical Memory, Mean (SD)","[1]; Wechsler Memory Scale-revised, p 0.78",49.7 (13.8)
same,"Visual memory: WM Visual reproduction, Mean (SD)","[1]; Wechsler Memory Scale-revised, p 0.94",59.9 (13.3)
same,"Executive function: Verbal Fluency, Mean (SD)",[1]; p 0.48 between phases,42.2 (8.4)
"CC(=O)S[C@@H]1CC2=CC(=O)CC[C@]2(C)[C@H]2CC[C@@]3(C)[C@@H](CC[C@@]34CCC(=O)O4)[C@H]12 [Spironolactone, 17-hydroxy-7-alpha-mercapto-3-oxo-17-alpha-pregn-4-ene-21-carboxylic acid gamma-lactone acetate]",unwanted effects on cognitive function,[2],reduce cognitive function
CC1(C)[C@@H](OC(=O)CCC(=O)O)CC[C@]2(C)[C@H]3C(=O)C=C4[C@@H]5C[C@@](C)(C(=O)O)CC[C@]5(C)CC[C@@]4(C)[C@]3(C)CC[C@@H]12 [carbenoxolone],withdrawals due to sodium retention,[3],3
